{"source": "patent US11660289B2", "about": "(Small Pharma Ltd, priority 2020, dated 2023)", "key": {"[1]": {"assay": "Human liver mitochondrial fraction intrinsic clearance", "assay_type": "in vitro ADME", "conditions": "0.5 mg/mL human liver mitochondrial fraction", "procedure": "Human Liver Mitochondrial (HLMt) fractions contain high quantities of MAO enzymes and therefore, provide a useful model system to measure the clearance of MAO substrates.\nA series of investigations using HLMts were conducted to assess the effect of MAO on the metabolism of DMT and deuterated DMT analogues in vitro."}, "[2]": {"assay": "Rat hepatocyte stability of D0, D6 and D8 5-MeO-DMT analogues", "assay_type": "in vitro ADME", "conditions": "cryopreserved pooled rat hepatocytes, 0.5×10^6 viable cells/mL, 60 min; for half-life at 1 μM: cryopreserved pooled rat hepatocytes in suspension, read-out: Qualified t1/2; for hepatocyte CLint at 1 μM: read-out: Qualified CLint (μL/min/10^6 cells)", "procedure": "(§1) Test compounds (5 μM) were incubated with cryopreserved hepatocytes in suspension. Samples were removed at 6 time points over the course of a 60 min experiment and test compounds were analysed by LC-MS/MS.\n(§2) The final incubation volume was 500 μL.\n(§3) Two control compounds were included with each species. Each compound was incubated for 0, 5, 10, 20, 40 and 60 min at 37° C. The reactions were stopped by transferring incubate into acetonitrile at the appropriate time points, in a 1:3 ratio. The termination plates were centrifuged at 3,000 rpm for 30 min at 4° C. to precipitate the protein.\n(§4) Following protein precipitation, the sample supernatants were combined in cassettes of up to 4 compounds, internal standard was added and samples analysed using Cyprotex generic LC-MS/MS conditions.\n(§5) From a plot of ln peak area ratio (compound peak area/internal standard peak area) against time, the gradient of the line is determined. Subsequently, half-life (t½) and intrinsic clearance (CLint) were calculated using the equations below:\n(§6) Elimination rate constant (k)=(−gradient)\n(§7) where V=Incubation volume (μL)/Number of cells"}, "[3]": {"assay": "Human hepatocyte stability of D0, D6 and D8 5-MeO-DMT analogues", "assay_type": "in vitro ADME", "conditions": "cryopreserved pooled human hepatocytes in suspension, cryopreserved pooled human hepatocytes, 0.5×10^6 viable cells/mL, 60 min; for hepatocyte CLint: read-out: Qualified CLint (μL/min/10^6 cells); for half-life: read-out: Qualified t1/2", "procedure": "as §1, §2, §3, §4, §5, §6, §7"}, "[4]": {"conditions": "in vivo; cited from earlier work"}, "[5]": {"tested_on": "Rat hepatocytes", "assay": "Rat hepatocyte stability of D0, D6 and D8 5-MeO-DMT analogues", "assay_type": "in vitro ADME", "conditions": "for Fold change from 5-MeO-DMT, CLint / Fold change from 5-MeO-DMT, t1/2: Rat hepatocytes; for Qualified CLint (μL/min/10^6 cells) / Qualified t1/2: cryopreserved pooled rat hepatocytes, 0.5×10^6 viable cells/mL, 60 min", "procedure": "as §1, §2, §3, §4, §5, §6, §7"}, "[6]": {"tested_on": "Human hepatocytes", "assay": "Human hepatocyte stability of D0, D6 and D8 5-MeO-DMT analogues", "assay_type": "in vitro ADME", "conditions": "for Fold change from 5-MeO-DMT, CLint / Fold change from 5-MeO-DMT, t1/2: Human hepatocytes; for Qualified CLint (μL/min/10^6 cells) / Qualified t1/2: cryopreserved pooled human hepatocytes, 0.5×10^6 viable cells/mL, 60 min", "procedure": "as §1, §2, §3, §4, §5, §6, §7"}, "[7]": {"conditions": "cited from earlier work"}, "[8]": {"assay": "Human half-life and clearance of DMT calculated from modelled literature data", "conditions": "in vivo; for clearance: read-out: clearance rate", "from_the_text": "DMT is metabolised very quickly in the human body. […] Based on these calculations, we reasoned that DMT is largely metabolised before reaching the human liver."}, "[9]": {"assay": "In vivo pharmacokinetic profile after IV and IM dosing in rats"}, "[10]": {"tested_on": "Human (mixed gender) hepatocytes", "assay": "Human hepatocyte intrinsic clearance of DMT and deuterated DMT analogues", "description": "Standard final incubation conditions are 1 μM compound in buffer containing nominally ˜0.5 million viable cells/mL, ˜0.9% (v/v) acetonitrile (MeCN) and ˜0.1% (v/v) DMSO (specific assay concentrations outlined above, section 2).\nSamples are then centrifuged at 4 oc."}, "[11]": {"conditions": "calculated from modelled data of Timmermann et al."}}, "note": "Read-outs that look alike come from different tables or passages of the source.", "data": [{"compound": "NCc1ccccc1", "note": "[Benzylamine, benzylamine]", "values": [{"measurement": "Intrinsic Clearance (μL/min/mg protein)", "setting": "[1]", "value": 60.0, "unit": "μL/min/mg protein"}, {"measurement": "half-life", "setting": "[1]", "value": 23.2, "unit": "min"}]}, {"compound": "COc1ccc2[nH]cc(CCN(C)C)c2c1", "note": "[Compound 5-MeO-DMT, 5-Methoxy-N,N-dimethyltryptamine]", "values": [{"measurement": "half-life at 1 μM", "setting": "[2]", "value": 4.46, "unit": "min"}, {"measurement": "hepatocyte CLint at 1 μM", "setting": "[2]", "value": 312, "unit": "µL/min/1e6 cells"}, {"measurement": "hepatocyte CLint", "setting": "[3]", "value": 104, "unit": "µL/min/1e6 cells"}, {"measurement": "half-life", "setting": "[3]", "value": 13.3, "unit": "min"}]}, {"compound": "[2H]C([2H])(c1c[nH]c2ccccc12)C([2H])([2H])N(C)C", "note": "[Compound D4DMT, α,α,β,β-tetradeuterio-DMT]", "values": [{"measurement": "onset and behaviour disrupting effects compared to equal doses of DMT", "setting": "[4]", "value": "shorter time to onset and potentiation of behaviour disrupting effects"}]}, {"compound": "[2H]C([2H])([2H])N(CCc1c[nH]c2ccc(OC)cc12)C([2H])([2H])[2H]", "note": "[Compound D6-5MeO-DMT, d6-5-Methoxydimethyltryptamine]", "values": [{"measurement": "Fold change from 5-MeO-DMT, CLint", "setting": "[5]", "value": 1.5, "unit": "fold"}, {"measurement": "Fold change from 5-MeO-DMT, t1/2", "setting": "[5]", "value": 1.5, "unit": "fold"}, {"measurement": "Qualified CLint (μL/min/10^6 cells)", "setting": "[5]", "value": 205.5, "unit": "μL/min/10^6 cells"}, {"measurement": "Qualified t1/2", "setting": "[5]", "value": 6.76, "unit": "min"}, {"measurement": "Fold change from 5-MeO-DMT, CLint", "setting": "[6]", "value": 1.2, "unit": "fold"}, {"measurement": "Fold change from 5-MeO-DMT, t1/2", "setting": "[6]", "value": 1.2, "unit": "fold"}, {"measurement": "Qualified CLint (μL/min/10^6 cells)", "setting": "[6]", "value": 85.7, "unit": "μL/min/10^6 cells"}, {"measurement": "Qualified t1/2", "setting": "[6]", "value": 16.2, "unit": "min"}]}, {"compound": "CNCCc1c[nH]c2ccccc12", "note": "[NMT, N-Methyltryptamine]", "values": [{"measurement": "duration of “visuals”", "setting": "[7]; smoking, 50-100 mg", "value": "15 to 30", "unit": "s"}]}, {"compound": "O=C(c1ccc(OCCN2CCCCC2)cc1)c1c(-c2ccc(O)cc2)sc2cc(O)ccc12", "note": "[Raloxifene]", "values": [{"measurement": "half-life at 1 μM", "setting": "[2]", "value": 11.1, "unit": "min"}, {"measurement": "hepatocyte CLint at 1 μM", "setting": "[2]", "value": 125, "unit": "µL/min/1e6 cells"}, {"measurement": "hepatocyte CLint", "setting": "[3]", "value": 152, "unit": "µL/min/1e6 cells"}, {"measurement": "half-life", "setting": "[3]", "value": 9.13, "unit": "min"}]}, {"compound": "CN(C)CCc1c[nH]c2ccccc12", "note": "[SPL026, N,N-dimethyltryptamine]", "values": [{"measurement": "Intrinsic Clearance (μL/min/mg protein)", "setting": "[1]", "value": 161.0, "unit": "μL/min/mg protein"}, {"measurement": "half-life", "setting": "[1]", "value": 8.6, "unit": "min"}, {"measurement": "clearance", "setting": "[8]; based on a 70 kg person", "value": 350, "unit": "mL/min/kg"}, {"measurement": "half-life", "setting": "[8]; [11]", "value": "~5", "unit": "min"}, {"measurement": "clearance", "setting": "[8]; [11]", "value": 24500, "unit": "mL/min"}, {"measurement": "duration of action", "setting": "[7]; in vivo", "value": "under 20 minutes"}, {"measurement": "Difference in AUC0-inf between male and female groups", "setting": "[9]; rats, 2 mg/kg IV fumarate", "value": "no significant difference"}]}, {"compound": "[2H]C([2H])([2H])N(CCc1c[nH]c2ccccc12)C([2H])([2H])[2H]", "note": "[SPL028vii, N,N-hexadeuterio-dimethyltryptamine]", "values": [{"measurement": "Intrinsic clearance of SPL026 minus intrinsic clearance of SPL028vii", "setting": "[10]", "value": 2.3, "unit": "μL/min/million cells"}]}, {"compound": "[2H]C([2H])([2H])N(C([2H])([2H])[2H])C([2H])([2H])Cc1c[nH]c2ccccc12", "note": "[SPL028viii, α,α,bis-deuterio-N,N-hexadeuterio-dimethyltryptamine]", "values": [{"measurement": "Intrinsic Clearance (μL/min/mg protein)", "setting": "[1]", "value": 10.9, "unit": "μL/min/mg protein"}, {"measurement": "Overall exposure compared with DMT (SPL026)", "setting": "[9]; rat plasma, following IV and IM dosing (FIGS. 1 to 3)", "value": "greater overall exposure"}, {"measurement": "Total systemic exposure (mean AUC0-inf) compared to SPL026", "setting": "[9]; rats, equivalent single IV and IM doses, ANOVA", "value": "significantly higher total systemic exposure"}, {"measurement": "Cmax compared with DMT (SPL026)", "setting": "[9]; rats, following IM dosing", "value": "significantly higher"}]}, {"compound": "NCCc1c[nH]c2ccc(O)cc12", "note": "[Serotonin, serotonin]", "values": [{"measurement": "Intrinsic Clearance (μL/min/mg protein)", "setting": "[1]", "value": 151.0, "unit": "μL/min/mg protein"}, {"measurement": "half-life", "setting": "[1]", "value": 9.2, "unit": "min"}]}, {"compound": "d8-5-Methoxydimethyltryptamine [Compound D8-5MeO-DMT]", "values": [{"measurement": "Fold change from 5-MeO-DMT, CLint", "setting": "[5]", "value": 1.8, "unit": "fold"}, {"measurement": "Fold change from 5-MeO-DMT, t1/2", "setting": "[5]", "value": 1.8, "unit": "fold"}, {"measurement": "Qualified CLint (μL/min/10^6 cells)", "setting": "[5]", "value": 176.0, "unit": "μL/min/10^6 cells"}, {"measurement": "Qualified t1/2", "setting": "[5]", "value": 7.89, "unit": "min"}, {"measurement": "Fold change from 5-MeO-DMT, CLint", "setting": "[6]", "value": 1.8, "unit": "fold"}, {"measurement": "Fold change from 5-MeO-DMT, t1/2", "setting": "[6]", "value": 1.8, "unit": "fold"}, {"measurement": "Qualified CLint (μL/min/10^6 cells)", "setting": "[6]", "value": 57.6, "unit": "μL/min/10^6 cells"}, {"measurement": "Qualified t1/2", "setting": "[6]", "value": 24.3, "unit": "min"}]}]}
